Patent US12037354B2, “Cyclic pantetheine derivatives and uses thereof” (VectivBio Comet AG, priority 2018, dated 2024)

Tests used:
HepG2 cells = experiment: Glucose uptake Glo Assay, Example 821; format: cell-based
Protocol: The effect of compounds from the present disclosure on glucose uptake was determined in HepG2 cells (ATCC, HB-8065) using the glucose uptake Glo Assay Kit (Promega, 11343 according to manufacturer instructions. HepG2 cells were cultured in complete DMEM-glucose media (Gibco) supplemented with 10% FBS (37° C. incubator with 5% CO2) and seeded in 96-well plates at 30,000 cells/well. After removing the complete media, 100 μL/well of serum-free, high-glucose DMEM media were added to the wells and incubated overnight (37° C. incubator with 5% CO2). Media was then replaced with 100 μl/well DPBS containing 0.6°/o BSA and starved for 1 hour. Next, DPBS was removed and 45 μl/well of insulin (100 nM) or compounds (10 μM-50 μM) were added to the wells and incubated for 10 minutes (37° C. incubator with 5% CO2). Insulin and compounds were prepared in DPBS with 0.6% BSA with a final DMSO concentration of 0.1%. Next, 5 μl of 2DG (10 mM) in DPBS were added per well and allowed to incubate for 20 minutes followed by addition of 25 μl stop buffer. 37.5 μl of the mixture were then transferred to a new plate and 12.5 μl of Neutralization buffer added to the wells. After, 50 μl of 2DG6P detection Reagent were added and incubated for 0.5-1 hour at room temperature. Luminescence was measured with 0.3-1 second integration on a luminometer.

[1] = system: Venular Endothelial cells (HUVEC) (4H system); experiment: BioMAP 4H system, Example 826; format: cell-based, human
Protocol: (§1) The BioMAP platform (BioMAP® Diversity PLUS Panel from Eurofins) is an in vitro phenotypic profiling technology that screened the compounds of the present disclosure (hereafter indicated as test agents) in human primary cell-based systems modelling complex tissue and disease states. The BioMAP assays were performed using the Eurofin's BioMAP Technology Platform as (see references 1 to 13 in the example 824 section) to model different diseases on primary cell-based model systems. These systems consisted of either single primary cell types or co-culture cells. Adherent cell types were cultured or co-cultured in 96 or 384-well plates until confluence followed by the addition of compounds prepared in DMSO at a final concentration of ≤0.1%. In each cell-based system, primary cells from heathy donors (2-6 donors) were pooled and treated with compounds at 1 and 10 μM dose 1 h prior to stimulation and remain in culture as indicated in
(§2) Example 825, Example 826, Example 827, Example 828, Example 829, Example 830, Example 831, Example 832, Example 833, Example 834, Example 835, Example 836 and Example 837. For on the BioMAP® Diversity PLUS® Panel, please see the following references, which are incorporate herein.
Following the general procedure as described in Example 824, Venular Endothelial cells (HUVEC) (4H system) were treated with IL-4 and histamine for 24 h to model Th2 driven allergy and autoimmunity in the presence or absence of compounds. Biomarkers read out were; MCP-1, Eotaxin-3. VCAM-1, P-selectin, uPAR (CD87), SRB and VEGFRII.

[2] = system: Peripheral blood mononuclear cells co-cultured with venular endothelial cells (HUVEC) (LPS system); experiment: BioMAP LPS system, Example 827; format: cell-based, human
Protocol: as §1, §2
Following the general procedure as described in Example 824, Peripheral blood mononuclear cells co-cultured with venular endothelial cells (HUVEC) (LPS system) were stimulated with LPS for 24 h in the presence or absence of compounds, to model cardiovascular disease and chronic inflammation. Biomarkers read out were; MCP-1, VCAM-1, Thrombomodulin, Tissue Factor, CD40, E-selectin, CD69, IL-8, IL-1α, M-CSF, sPGE2, SRB and TNFα.

[3] = system: Dermal fibroblasts (HDF3CGF system); experiment: BioMAP HDF3CGF system, Example 833; format: cell-based, human
Protocol: as §1, §2
Following the general procedure as described in Example 824, Dermal fibroblasts (HDF3CGF system) were treated with IL-1β, TNFα and IFNγ, EGF, bFGF and PDGF-BB for 24 h in the presence or absence of the compounds to model fibrosis and chronic inflammation. Biomarkers read out were; MCP-1, VCAM-1, ICAM-1, Collagen-I, Collagen-III, IP-10, I-TAC, IL-8, MIG, EGFR, M-CSF, MMP-1, PAI-1, SRB, TIMP-1, TIMP-2 and proliferation was measured for 72 h.

[4] = system: Venular endothelial cells co-cultured with macrophages (Mphg system); experiment: BioMAP Mphg system, Example 836; format: cell-based, human
Protocol: as §1, §2
Following the general procedure as described in Example 824, Venular endothelial cells co-cultured with macrophages (Mphg system) and treated with TLR2 ligand for 24 h in the presence or absence of the compounds to mimic cardiovascular inflammation, restenosis and chronic inflammation. Biomarkers read out were; MCP-1, MIP-1α, VCAM-1, CD40, E-selectin, CD69, IL-8, IL-1α, M-CSF, sIL-10 and SRB.

[5] = system: Lung fibroblast (MyoF system); experiment: BioMAP MyoF system, Example 835; format: cell-based, human; settings: 10 uM
Protocol: as §1, with “indicated in […]” for “indicated in”
Following the general procedure as described in Example 824, Lung fibroblast (MyoF system) were treated with TNFα and TGFβ for 48 h in the presence or absence of the compounds to model fibrosis, chronic inflammation, wound healing, matrix remodelling. Biomarker read out were; α-SM Actin, bFGF, VCAM-1, Collagen-I, Collagen-III, […], IL-8, decorin, MMP-1, PAI-1, TIMP-1, SRB

[6] = Example 988, concentration tested 1 uM
[7] = procedure of Example 827, concentration tested 1 uM
[8] = Homo sapiens, 20 min, read-out: % increase in Glucose Uptake
[9] = procedure of Example 827, concentration tested 10 uM
[10] = procedure of Example 836, 10 uM

| Structure (SMILES) | % decrease in E-Selectin ([1]; 4H system, 1 uM) [%] | % decrease in Eotaxin-3 ([1]; 4H system, 1 uM) [%] | % decrease in VEGFRII ([1]; 4H system, 1 uM) [%] | % decrease in E-Selectin ([1]; concentration tested 1 uM) [%] | % decrease in Eotaxin-3 ([1]; concentration tested 1 uM) [%] | % decrease in VEGFRII ([1]; concentration tested 1 uM) [%] | % decrease in M-CSF [2, 6] [%] | % decrease in IL-1α ([2]; LPS system, 1 uM) [%] | % decrease in IL-8 ([2]; LPS system, 1 uM) [%] | % decrease in M-CSF ([2]; LPS system, 1 uM) [%] | % decrease in Thrombomodulin ([2]; LPS system, 1 uM) [%] | % decrease in Tissue Factor ([2]; LPS system, 10 uM) [%] | % increase in sTNFα ([2]; LPS system, 10 uM) [%] | % decrease in IL-1α ([2]; concentration tested 1 uM) [%] | % decrease in Thrombomodulin ([2]; concentration tested 1 uM) [%] | % decrease in Tissue Factor ([2]; concentration tested 10 uM) [%] | % increase in sTNFα ([2]; concentration tested 10 uM) [%] | % decrease in IL-8 [2, 7] [%] | activation at 50 µM (HepG2 cells; [8]) [%] | % increase in Glucose Uptake (HepG2 cells; concentration tested 50 uM) [%] | other results |
| --- | --- | --- | --- | --- | --- | --- | --- | --- | --- | --- | --- | --- | --- | --- | --- | --- | --- | --- | --- | --- | --- |
| CC(=O)CC(=O)SCCNC(=O)CCNC(=O)[C@@H]1OP(=O)(O)OCC1(C)C [Compound 42] | ≥10 | ≥10 | ≥10 | ≥10 | ≥10 | ≥10 | ≥20 | ≥10 | ≥20 | ≥20 | ≥10 | ≥10 | ≥20 | ≥10 | ≥10 | ≥10 | ≥20 | ≥20 | – | – | activation at 10 µM (HepG2 cells; Homo sapiens, 20 min, 10 uM, read-out: % increase in Glucose Uptake): ≥ 30%; % increase in Glucose Uptake (HepG2 cells; concentration tested 10 uM): ≥30%; % decrease in TIMP-2 ([3]; 10 uM): ≥10%; % decrease in α-SMA ([4]; procedure of Example 836, 1 uM): ≥10%; % increase in MMP-1 ([4]; procedure of Example 836, 1 uM): ≥10% |
| COC(=O)CCC(=O)SCCNC(=O)CCNC(=O)[C@@H]1OC(=O)OCC1(C)C [Compound 451] | ≥10 | ≥10 | ≥10 | ≥10 | ≥10 | ≥10 | ≥20 | ≥10 | – | ≥20 | ≥10 | ≥10 | – | ≥10 | ≥10 | ≥10 | – | – | ≥ 20 | ≥20 | % decrease in MCP-1 ([1]; 4H system, 10 uM): ≥10%; % decrease in MCP-1 ([1]; concentration tested 10 uM): ≥10%; % decrease in IL-8 ([2]; LPS system, 10 uM): ≥20%; % decrease in IL-8 [2, 9]: ≥20%; % decrease in Collagen III ([3]; 1 uM): ≥10%; % decrease in TIMP-1 ([3]; 1 uM): ≥10%; % decrease in α-SMA ([4]; procedure of Example 836, 1 uM): ≥10%; % decrease in VCAM-1 [4, 10]: ≥10%; % increase in MMP-1 [4, 10]: ≥10% |
| C/C=C/C(=O)SCCNC(=O)CCNC(=O)[C@@H]1OP(=O)(O)OCC1(C)C [Compound 36] | ≥20 | ≥10 | ≥20 | ≥20 | ≥10 | ≥20 | ≥20 | ≥10 | ≥20 | ≥20 | ≥10 | ≥10 | – | ≥10 | ≥10 | ≥10 | – | ≥20 | ≥ 30 | ≥30 | % decrease in MCP-1 ([1]; 4H system, 1 uM): ≥10%; % decrease in MCP-1 ([1]; concentration tested 1 uM): ≥10%; % decrease in sPGE2 ([2]; LPS system, 10 uM): ≥10%; % decrease in sTNFα ([2]; LPS system, 10 uM): ≥10%; % decrease in sTNFα ([2]; concentration tested 10 uM): ≥10%; % decrease in EGFR ([3]; 1 uM): ≥10%; % decrease in TIMP-1 ([3]; 1 uM): ≥10%; % decrease in TIMP-2 ([3]; 1 uM): ≥20%; % decrease in MMP-1 ([3]; 10 uM): ≥10%; % increase in 72 Hour Proliferation ([3]; 10 uM): ≥10%; % decrease in uPA [5]: ≥10%; % increase in MIP-1α ([4]; Mphg system, 10 uM): ≥10% |
| CCOP1(=O)OCC(C)(C)[C@H](C(=O)NCCC(=O)NCCSC(=O)CCC(=O)O)O1 (some centres unmarked) [Compound 61] | – | – | – | – | – | – | ≥10 | ≥10 | – | ≥10 | – | ≥10 | ≥10 | ≥10 | – | ≥10 | ≥10 | – | ≥ 10 | ≥10 | % decrease in E-Selectin ([1]; 4H system, 10 uM): ≥10%; % decrease in MCP-1 ([1]; 4H system, 10 uM): ≥10%; % decrease in E-Selectin ([1]; concentration tested 10 uM): ≥10%; % decrease in MCP-1 ([1]; concentration tested 10 uM): ≥10%; % decrease in sTNFα ([2]; LPS system, 1 uM): ≥10%; % decrease in IL-8 ([2]; LPS system, 10 uM): ≥20%; % decrease in sTNFα ([2]; concentration tested 1 uM): ≥10%; % decrease in IL-8 [2, 9]: ≥20%; % decrease in TIMP-1 ([3]; 10 uM): ≥10%; % decrease in α-SMA [4, 10]: ≥10%; % increase in MMP-1 [4, 10]: ≥10% |
| COC(=O)CCC(=O)SCCNC(=O)CCNC(=O)[C@@H]1OC(C)(CC(=O)OC)OCC1(C)C (some centres unmarked) [Compound 633] | ≥20 | ≥10 | ≥10 | ≥20 | ≥10 | ≥10 | ≥10 | – | ≥20 | ≥10 | ≥20 | – | ≥10 | – | ≥20 | – | ≥10 | ≥20 | – | – | % decrease in MCP-1 ([1]; 4H system, 10 uM): ≥10%; % decrease in MCP-1 ([1]; concentration tested 10 uM): ≥10%; % decrease in Tissue Factor ([2]; LPS system, 1 uM): ≥10%; % decrease in sPGE2 ([2]; LPS system, 1 uM): ≥10%; % decrease in sTNFα ([2]; LPS system, 1 uM): ≥10%; % decrease in Tissue Factor ([2]; concentration tested 1 uM): ≥10%; % decrease in sTNFα ([2]; concentration tested 1 uM): ≥10%; % decrease in EGFR ([3]; 1 uM): ≥10%; % decrease in TIMP-1 ([3]; 1 uM): ≥20%; % decrease in TIMP-2 ([3]; 1 uM): ≥10%; % increase in 72 Hour Proliferation ([3]; 10 uM): ≥10%; % increase in PAI-I ([3]; 10 uM): ≥10%; % decrease in uPA [5]: ≥10%; % decrease in VCAM-1 ([4]; procedure of Example 836, 1 uM): ≥10%; % decrease in α-SMA [4, 10]: ≥10% |
